Publication PMC9037180, “Ligand-based design and synthesis of N'-Benzylidene-3,4-dimethoxybenzohydrazide derivatives as potential antimicrobial agents; evaluation by in vitro, in vivo, and in silico approaches with SAR studies” (Journal of Enzyme Inhibition and Medicinal Chemistry, 2022)
Values after ≈ are worked out from the molar mass of the structure shown.

Tests used:
[1] = system: Acientobacter (A. baumanii) ATCC 19606; experiment: Agar well diffusion assay; type: cell-based; conditions: result in words
Method: (§1) The agar well diffusion assay was first done to evaluate the antimicrobial activities of the different target compounds (4a–j) against gram-positive bacteria, gram-negative bacteria, and fungi (Table 1A). […] First, the antibacterial activities were tested against S. aureus ATCC 6538, Acientobacter (A. baumanii) ATCC 19606, S. typhi, E. coli, and P. aeruginosa as examples of the most common gram-positive and gram-negative bacteria, in comparison to vancomycin and ceftriaxone as two reference standards. In addition, the antifungal activities were screened against C. albicans, in comparison to amphotericin as a reference standard. […] The antibacterial activities of some tested compounds (4a, 4b, 4h, and 4e) against gram-positive and gram-negative bacteria by agar well diffusion assay are represented in the supplementary data (Figure SI1).
(§2) A modification of the agar well diffusion method[55] was done to detect the antimicrobial activities of different compounds (4a–j) against gram-positive bacteria, gram-negative bacteria, and fungi. The work was carried out at the Microbiology Department Faculty of Medicine for Girls Al-Azhar University. By visual comparison to 0.5 McFarland turbidity standards, a suspension of each bacterial strain was prepared. The zones of inhibition were measured in cm.

E. coli = experiment: Agar well diffusion assay; type: cell-based; conditions: result in words
Method: as §1, §2

A. baumanii = experiment: Minimal bactericidal concentration (MBC); type: cell-based; conditions: Acinetobacter baumannii
Method: (§3) After determining the MIC for the target compounds, the minimal bactericidal concentration (MBC) for each compound that is required to kill each one of the above-mentioned microorganisms was assessed.

C. albicans = experiment: Minimal bactericidal concentration (MBC); type: cell-based; conditions: Candida albicans
Method: as §3

[2] = Cytotoxicity on cells using MTT assay; type: cell-based; conditions: African green monkey, Vero cells (normal mammalian cell line)
Method: The newly synthesised compounds were looked deeply into their efficacy using in silico, in vitro, and in vivo approaches. On the other hand, the cytotoxicity assay was performed for the tested compounds using a normal mammalian Vero cell line by the MTT assay[31]^,[32].
Moreover, the cytotoxicity values of the target compounds were determined to calculate their corresponding IC50 values through the MTT assay. The IC50 value indicates the compound’s concentration that is required to inhibit 50% of the target cells.
The MTT (3–(4,5-dimethylthiazol-2-yl)-2,5-diphenyltetrazolium bromide) tetrazolium reduction assay protocol was applied to determine the cytotoxicity of the target compounds (4a–j) on cells.

Acientobacter sensitive = experiment: Minimal inhibitory concentration (MIC), broth dilution
Aciento MDR = experiment: as above
S. aureus ATCC 6538 [3] = experiment: as above
P. aeruginosa = experiment: Agar well diffusion assay; type: cell-based; conditions: result in words
Method: as §1, §2

S. aureus ATCC 6538 [4] = experiment: Agar well diffusion assay; type: cell-based; conditions: result in words
Method: as §1, §2

S. typhi = experiment: Agar well diffusion assay; type: cell-based; conditions: result in words
Method: as §1, §2

Aciento sensitive = experiment: Minimal bactericidal concentration (MBC); type: cell-based, A. baumanii; conditions: Aciento sensitive
Method: as §3

S. aureus = experiment: H&E histological examination of liver and kidney, S. aureus infected rats; type: in vivo
Method: Rats were divided randomly into equal fifteen groups, each containing 9 rats as follows: • Group 1: Rats were kept on standard laboratory chow and water ad libitum to serve as a control. • Group 2: Rats have injected IP with sterile distilled water (4ml/kg) daily for one week to serve as a control. • Group 3: Rats have injected IP with DEMSO (dimethyl sulfoxide) (4 ml/kg) daily for one week to serve as a control. • Group 4: Rats have injected IP with 4h (1.9 mg/kg) daily for one week. • Group 5: Rats have injected IP with 4h (3.8 mg/kg) daily for one week. • Group 6: Rats have injected IP with 4i (1.9 mg/kg) daily for one week. • Group 7: Rats have injected IP with 4i (3.8 mg/kg) daily for one week. • Group 8: Rats were infected by a single IM injection of S. aureus strain [1.0 ml) 1 × 10^7) colony-forming units]. • Group 9: Rats have injected IP with 4h (1.9 mg/kg) daily for one week on the 7th day after induction of infection by a single IM injection of S. aureus strain [1.0 ml (1 × 10^7) colony-forming units. • Group 10: Rats have injected IP with 4h (3.8 mg/kg) daily for one week on the 7th day after induction of infection by a single IM injection of S. aureus strain [1.0 ml (1 × 10^7) colony-forming units]. • Group 11: Rats were infected by a single IM injection of S. typhi strain [1.0 ml (1 × 10^7) colony forming units). • Group 12: Rats have injected IP with 4h (1.9 mg/kg) daily for one week. on the 7th day after induction of infection by a single IM injection of S. typhi strain [1.0 ml (1 × 10^7) colony-forming units]. • Group 13: Rats have injected IP with 4h (3.8 mg/kg) daily for one week on the 7th day after infection by a single IM injection of S. typhi strain [1.0 ml (1 × 10^7) colony-forming units]. • Group 14: Rats have injected IP with 4i (1.9 mg/kg) daily for one week. on the 7th day after induction of infection by a single IM injection of S. typhi strain [1.0 ml (1 × 10^7) colony-forming units]. • Group 15: Rats have injected IP with 4i (3.8 mg/kg) daily for one week. on the 7th day after induction of infection by a single IM injection of Salmonella strain [1.0 ml (1 × 10^7) colony-forming units].
At the end of the experiment, the animals were euthanized through cervical dislocation. After that, the liver and kidney were dissected for histological study. The procedure for histological preparations was described by Bancroft and Stevens[73]. Briefly, liver and kidney tissues were sliced to 3–4 mm thick, fixed in 10% neutral buffered formalin (10% NBF), dehydrated in graded concentrations of ethanol, cleared in xylene, and embedded in paraffin. The paraffin blocks were sectioned with a microtome at (4–6 μm) thickness and dyed with H & E stain to study the general tissue structure.

Compound: COc1ccc(C(=O)NN=Cc2ccc3ccccc3n2)cc1OC [Compound 4i, N'-(quinolin-2-ylmethylene)-3,4-dimethoxybenzohydrazide]
- zones of inhibition (inhibitory activity) [1]: most inhibitory activity
- zones of inhibition (inhibitory activity) (E. coli): superior inhibitory activity
- MBC (A. baumanii): 186 µM (≈ 62.5 µg/mL)
- MBC (C. albicans): 186 µM (≈ 62.5 µg/mL)
- IC50 [2]: 305 µM
- MIC (Acientobacter sensitive; Acinetobacter baumannii): 46.5 µM (≈ 15.6 µg/mL)
- MIC (Aciento MDR; Acinetobacter baumannii): 373 µM (≈ 125 µg/mL)
- MIC (S. aureus ATCC 6538 [3]; Staphylococcus aureus, ATCC6538): 46.5 µM (≈ 15.6 µg/mL)

Compound: N'-((3a,7a-dihydro-1H-indol-3-yl)methylene)-3,4-dimethoxybenzohydrazide [Compound 4h]
- zones of inhibition (inhibitory activity) (P. aeruginosa): best activities
- zones of inhibition (inhibitory activity) (S. aureus ATCC 6538 [4]): best activities
- zones of inhibition (inhibitory activity) (S. typhi): best activities
- MBC (Aciento sensitive): 96.87 µM
- kidney pathological changes (H&E) (S. aureus; high dose (3.8 mg/kg)): marked improved renal tissue
- liver pathological changes (H&E) (S. aureus; high dose (3.8 mg/kg)): marked improvement in the pathological changes
- kidney pathological changes (H&E) (S. aureus; low dose (1.9 mg/kg)): improved pathological changes
- liver pathological changes (H&E) (S. aureus; low dose (1.9 mg/kg)): improved pathological changes
- MIC (Acientobacter sensitive; Acientobacter sensitive (AS)): 24.17 µM
- MIC (Aciento MDR; Aciento MDR (AM)): 193.40 µM
- MIC (S. aureus ATCC 6538 [3]; S. aureus (SA)): 5.88 µM
